The values below come from patent US5702934A, “Processes for producing an enzyme” (priority 1993, dated 1997).

Where two headings read alike, the source gives them in different places.

The target in assay [1] is T1, trypsin-like Fusarium oxysporum protease (F. oxysporum DSM 2672), SEQ ID NO: 2 (Fusarium oxysporum, UniProt P35049).
T1 construct: made in house; host or cells: Aspergillus oryzae IFO 4177 transformed with pSX183
The experiment in a line: Tryptic activity (L-BAPNA) of the trypsin-like protease with or without 1,10-phenanthroline. The assay is classed as biochemical. As for the experimental part: (§1) The tryptic activity is measured in microtiter plates; 100 μl samples are mixed with 100 μl of substrate (Stock: 87 mg/ml L-BAPNA (Sigma) in DMSO, diluted 50-fold in buffer) and the absorption at 405 nm is measured using a Thermomax microplate reader from Molecular Devices.
(§2) Metalloproteases contain a catalytic zinc metal center which participates in the hydrolysis of the peptide backbone. The active zinc center differentiates these proteases from calpains whose activities are dependent upon the presence of calcium. Confirmation of a protease as a metallo-protease is loss of proteolytic activity accomplished by removal of the zinc center with 1,10-phenanthroline (1 mM) followed by titration with Zn^2+ (0.1-100μM) to restore full activity.

Assay [2] addresses T2, Fusarium oxysporum p45 proteolytic enzyme (p45 maturase, metalloprotease), SEQ ID NO:6 (Fusarium oxysporum, UniProt M1UZ70).
T2 construct: apparently native maturase from F. oxysporum; recombinant p45 also made in A. oryzae
The assay is classed as biochemical. As for the experimental part:
as §1, §2

Assay [3] deals with pro-trypsin-like Fusarium oxysporum protease (recombinant proenzyme form of the trypsin-like F. oxysporum protease) (Fusarium oxysporum DSM 2672).

`c1cnc2c(c1)ccc1cccnc12` [1,10-phenanthroline]: the “inhibition of the trypsin-like protease (in words)” value in assay [1] (1,10-phenanthroline 1 mM) is “not inhibited”. For the same compound, the “Tryptic Activity (Δ Abs/min × 10^-4)” value in assay [1] (1,10-phenanthroline 1 mM, no Zn2+, without inhibitor 34.0) is 33.8 Δ Abs/min × 10^-4. The “tryptic activity with inhibitor addition” value in assay [1] (1,10-phenanthroline (1 mM), without inhibitor 34.0×10^-4) is 33.8×10^-4 ΔAbs/min. In assay [2] (1 mM 1,10-phenanthroline), the “Maturase activity upon addition of inhibitor (in words)” value is “halted”. Further, the “Tryptic Activity (Δ Abs/min × 10^-4) released by p45 Maturase from pro-trypsin-like F. oxysporum protease” value in assay [2] (1,10-phenanthroline 1 mM, no Zn2+, without inhibitor 54.0, proenzyme alone 1.26) was 2.9 Δ Abs/min × 10^-4.
For `O=C(O)CN(CCN(CC(=O)O)CC(=O)O)CC(=O)O` [EDTA], in assay [2] (EDTA 1 mM substituted for 1,10-phenanthroline), the “Maturase activity upon addition of inhibitor (in words)” value is “Analogous results”.
“p45 proteolytic enzyme (maturase) from Fusarium oxysporum”: the Tryptic Activity (Δ Abs/min × 10^-4) released from the proenzyme, L-BAPNA assay in assay [3] was 0.0054 Δ Abs/min.
